Biological target: T1, Octα2R (α2-adrenergic-like octopamine receptor) (Drosophila melanogaster, UniProt Q9VE32)
T1 sequence (Q9VE32 1-699): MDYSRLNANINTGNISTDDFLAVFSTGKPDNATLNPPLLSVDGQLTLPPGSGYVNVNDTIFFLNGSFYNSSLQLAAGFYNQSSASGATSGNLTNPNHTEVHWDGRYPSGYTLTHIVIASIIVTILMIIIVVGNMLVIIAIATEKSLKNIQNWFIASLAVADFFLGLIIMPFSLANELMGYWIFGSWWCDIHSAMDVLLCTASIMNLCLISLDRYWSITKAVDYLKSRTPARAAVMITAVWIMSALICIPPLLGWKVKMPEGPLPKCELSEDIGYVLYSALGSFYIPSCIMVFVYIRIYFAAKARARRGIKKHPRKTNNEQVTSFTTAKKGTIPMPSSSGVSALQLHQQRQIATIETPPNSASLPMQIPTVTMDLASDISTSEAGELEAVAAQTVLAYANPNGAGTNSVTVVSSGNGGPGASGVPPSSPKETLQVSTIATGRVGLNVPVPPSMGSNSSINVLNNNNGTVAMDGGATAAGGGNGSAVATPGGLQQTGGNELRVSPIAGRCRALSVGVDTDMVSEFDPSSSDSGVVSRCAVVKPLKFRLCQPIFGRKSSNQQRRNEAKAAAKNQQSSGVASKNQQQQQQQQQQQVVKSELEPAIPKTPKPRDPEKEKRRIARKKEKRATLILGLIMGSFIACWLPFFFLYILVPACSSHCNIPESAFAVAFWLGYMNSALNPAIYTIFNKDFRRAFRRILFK
Assay: aequorin Ca2+ luminescence, inhibition of octopamine response, HEK-293 cells
Assay type: cell-based

Row | IC50 | Structure (SMILES)
1 | 18000 nM | COC(=O)[C@@H]1[C@H]2C[C@H]3c4[nH]c5ccccc5c4CCN3C[C@@H]2CC[C@@H]1O [YO, yohimbine]
2 | 93 nM | Cc1ccc(N(CC2=NCCN2)c2cccc(O)c2)cc1 [PA, phentolamine]
3 | 100 nM | NC1=NCC2c3ccccc3Cc3ccccc3N12 (stereo not drawn) [EP, epinastine]

Source: PMC9744561 (Genes, Brain, and Behavior, 2022)
